This note sets out measurements from US12083101B2, “Biaryl derivatives as YAP/TAZ-TEAD protein-protein interaction inhibitors” (Novartis AG, priority 2020, dated 2024).

In assay [1] the test system is NCI-H2052 Tet-On shYAP_2371 pLenti6 MCAT_Luc cells (YAP-dependent transcription). Put plainly: YAP reporter gene activity assay (MCAT-luciferase), NCI-H2052. Type of assay: cell-based. As to conditions: 24 hours incubation, BrightGlo luminescence. The gist of the method:
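Luminescence was read 5 min after BrightGlo, following 24 h at 37 °C of compound exposure (eleven 2-fold dilutions, DMSO normalized to 0.1%). Cells were NCI-H2052 with a YAP-responsive MCAT-luciferase and a Tet-inducible shRNA against YAP1 3′UTR. Cell-free background was removed, values were normalized to vehicle, and IC50 was fitted with four parameters.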
On the technique in general: A reporter such as luciferase makes a cellular process visible.

The subject of assay [2] is MKN-45/Ubc-luc cells. Put plainly: Reporter gene specificity control (Ubc-luciferase), MKN-45.
Assay [3] has as its system MKN-45/Ubc-luc cells. Put plainly: Proliferation assay (resazurin), MKN-45. Type of assay: cell-based. As to conditions: 72 hours incubation.
Assay [4] deals with Avi-humanTEAD4 217-434 / Cy5 labeled humanYAP 60-100 (Homo sapiens (Human), UniProt Q15561). Put plainly: TR-FRET YAP-TEAD4 in-vitro biochemical assay. Type of assay: binding. As to conditions: 1 nM Avi-humanTEAD4 217-434, 20 nM Cy5-humanYAP 60-100, 1 h room temperature.
Chain of Avi-humanTEAD4 217-434 / Cy5 labeled humanYAP 60-100 (Q15561 217-434): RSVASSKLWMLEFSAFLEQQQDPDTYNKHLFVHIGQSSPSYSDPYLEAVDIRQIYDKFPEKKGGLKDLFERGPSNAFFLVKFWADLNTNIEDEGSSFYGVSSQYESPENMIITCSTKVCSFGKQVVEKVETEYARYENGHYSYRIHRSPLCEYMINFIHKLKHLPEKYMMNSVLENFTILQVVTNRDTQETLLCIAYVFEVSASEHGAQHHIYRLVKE
The subject of assay [5] is NCI-H2052 Tet-On shYAP_2371 pLenti6 MCAT_Luc cells. Put plainly: Proliferation assay (resazurin), NCI-H2052. As to conditions: 72 hours incubation. The format is cell-based. The gist of the method: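 The NCI-H2052 line carries a Tet-inducible shRNA against the YAP1 3′UTR and an MCAT luciferase reporter. The day after seeding, it received eleven 2-fold compound dilutions at 0.1% DMSO, and viability was read by resazurin fluorescence.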
(The colour change of resazurin is a common sign of viable cells or microbes.)

The mark [6] stands for this setting: Homo sapiens, MKN-45, 24 h, read-out: Reporter gene assay MKN-45 IC50 [μM], MKN-45/Ubc-luc cells (YAP deleted, specificity control), 24 hours incubation.
Setting [7] is: read-out: Reporter gene assay MKN-45 IC50, MKN-45/Ubc-luc cells (YAP deleted, specificity control), 24 hours incubation.

Where two headings read alike, the source gives them in different places. Some results are limits rather than exact numbers.

The term GI50 denotes the concentration giving 50% growth inhibition. A low value points to greater sensitivity of the cells. As for `CNC(=O)c1ccc(OCCO)c(F)c1-c1c(Cl)c(F)cc2c1C[C@](c1ccccc1)([C@@H]1CCCCN1)O2` (atropisomer, axis not shown) [Example 161, 2-((2S,4S)-5-Chloro-6-fluoro-2-phenyl-2-((S)-piperidin-2-yl)-2,3-dihydrobenzofuran-4-yl)-3-fluoro-4-(2-hydroxyethoxy)-N-methylbenzamide], the IC50 is 174 nM in assay [1] (Homo sapiens, NCI-H2052, 24 h); greater than 10 µM with MKN-45/Ubc-luc cells [2] (setting [6]); 29 nM in assay [4]. The GI50 is greater than 10 µM with MKN-45/Ubc-luc cells [3] (Homo sapiens) and 167 nM in assay [5] (Homo sapiens, NCI-H2052, 72 h).

As for `C[C@H]1c2c(ccc(Cl)c2-c2c(C(N)=O)ccc(OC(F)F)c2F)O[C@]1(CN[C@H]1CC[C@](C)(O)CC1)c1ccccc1` (relative stereo) [Example 104b, 2-((2S,3S,4S)-5-chloro-2-((((trans)-4-hydroxy-4-methylcyclohexyl)amino)methyl)-3-methyl-2-phenyl-2,3-dihydrobenzofuran-4-yl)-4-(difluoromethoxy)-3-fluorobenzamide], the IC50 was 22 nM in assay [1], greater than 10 µM in the assay on MKN-45/Ubc-luc cells [2] (setting [7]) and 2 nM in assay [4]. Further, the GI50 in the assay with MKN-45/Ubc-luc cells [3] is greater than 10 µM; in assay [5], 55 nM.

In the case of `COCCOc1ccc(C(N)=O)c(-c2c(Cl)c(F)cc3c2C[C@@](CN)(c2ccccc2)O3)c1F` (atropisomer, axis not shown) [Example 37, 2-((2S,4S)-2-(aminomethyl)-5-chloro-6-fluoro-2-phenyl-2,3-dihydrobenzofuran-4-yl)-3-fluoro-4-(2-methoxyethoxy)benzamide], the IC50 was 33 nM in assay [1] (Homo sapiens, NCI-H2052, 24 h); greater than 10 µM with MKN-45/Ubc-luc cells [2] (setting [6]); 2 nM in assay [4]. Also, the GI50 in the assay with MKN-45/Ubc-luc cells [3] (Homo sapiens) was greater than 10 µM; in assay [5] (Homo sapiens, NCI-H2052, 72 h), 52 nM.

With `COc1ccc(C(=O)Nc2cccnc2)c(-c2c(Cl)ccc3c2C[C@@](CN)(c2ccccc2)O3)c1F` (atropisomer, axis not shown) [Example 25, 2-((2S,4S)-2-(aminomethyl)-5-chloro-2-phenyl-2,3-dihydrobenzofuran-4-yl)-3-fluoro-4-methoxy-N-(pyridin-3-yl)benzamide], the IC50 was 106 nM in assay [1] (Homo sapiens, NCI-H2052, 24 h); greater than 10 µM with MKN-45/Ubc-luc cells [2] (setting [6]); 5 nM in assay [4]. Also, the GI50 with MKN-45/Ubc-luc cells [3] (Homo sapiens) was greater than 10 µM; in assay [5] (Homo sapiens, NCI-H2052, 72 h) it was 145 nM.

With `NC[C@@]1(c2ccccc2)Cc2c(cc(F)c(Cl)c2-c2c(C(N)=O)ccc(OCCO)c2F)O1` (atropisomer, axis not shown) [Example 38, 2-((2S,4S)-2-(aminomethyl)-5-chloro-6-fluoro-2-phenyl-2,3-dihydrobenzofuran-4-yl)-3-fluoro-4-(2-hydroxyethoxy)benzamide], the IC50 in assay [1] (Homo sapiens, NCI-H2052, 24 h) is 24 nM; in the assay with MKN-45/Ubc-luc cells [2] (setting [6]), greater than 10 µM; in assay [4] it was 2 nM. Moreover, the GI50 with MKN-45/Ubc-luc cells [3] (Homo sapiens) was greater than 10 µM; in assay [5] (Homo sapiens, NCI-H2052, 72 h), 29 nM.

With `COc1ccc(C(N)=O)c(-c2c(Cl)ccc3c2C[C@@](CN[C@H]2CC[C@@H](O)CC2)(c2ccccc2)O3)c1F` (relative stereo) [Example 27b, 2-((2S,4S)-5-chloro-2-(((cis-4-hydroxycyclohexyl)amino)methyl)-2-phenyl-2,3-dihydrobenzofuran-4-yl)-3-fluoro-4-methoxybenzamide], the IC50 is 78 nM in assay [1], greater than 10 µM in the assay with MKN-45/Ubc-luc cells [2] (setting [7]) and 1 nM in assay [4]. Further, the GI50 is greater than 10 µM with MKN-45/Ubc-luc cells [3] and 182 nM in assay [5].

As for `COc1ccc(C(N)=O)c(-c2c(Cl)ccc3c2[C@H](O)[C@@](CN)(c2cccnc2OC)O3)c1F` (atropisomer, axis not shown) [Example 91, 2-((2S,3S,4S)-2-(Aminomethyl)-5-chloro-3-hydroxy-2-(2-methoxypyridin-3-yl)-2,3-dihydrobenzofuran-4-yl)-3-fluoro-4-methoxybenzamide], the IC50 is 960 nM in assay [1] (Homo sapiens, NCI-H2052, 24 h); greater than 10 µM in the assay on MKN-45/Ubc-luc cells [2] (setting [6]); 22 nM in assay [4]. In addition, the GI50 was greater than 10 µM in the assay on MKN-45/Ubc-luc cells [3] (Homo sapiens) and 1930 nM in assay [5] (Homo sapiens, NCI-H2052, 72 h).

Regarding `Fc1cc2c(c(-c3ccccc3)c1Cl)C[C@](c1ccccc1)(C1COCCN1)O2` (single isomer, unassigned) [Example 162], the IC50 in assay [1] (Homo sapiens, NCI-H2052, 24 h) is 1000 nM; in the assay on MKN-45/Ubc-luc cells [2] (setting [6]) it was greater than 10 µM; in assay [4], 1520 nM. For the same compound, the GI50 with MKN-45/Ubc-luc cells [3] (Homo sapiens) is greater than 10 µM; in assay [5] (Homo sapiens, NCI-H2052, 72 h) it was 1760 nM.

On to `CC(C)(O)C1CC(NC[C@@]2(c3ccccc3)Cc3c(cc(F)c(Cl)c3-c3c(C(N)=O)ccc(OC(F)F)c3F)O2)C1` (single isomer, unassigned) [Example 62a], for which the IC50 in assay [1] is 203 nM; in the assay on MKN-45/Ubc-luc cells [2] (setting [6]), greater than 10 µM; in assay [4], 16 nM. For the same compound, the GI50 in the assay with MKN-45/Ubc-luc cells [3] (Homo sapiens) is greater than 10 µM; in assay [5], 240 nM.

For `NC(=O)c1ccc(OCCO)c(F)c1-c1c(Cl)c(F)cc2c1C[C@](c1ccccc1)([C@@H]1CCCN1)O2` (atropisomer, axis not shown) [Example 151, 2-((2S,4S)-5-Chloro-6-fluoro-2-phenyl-2-((S)-pyrrolidin-2-yl)-2,3-dihydrobenzofuran-4-yl)-3-fluoro-4-(2-hydroxyethoxy)benzamide], the IC50 in assay [1] (Homo sapiens, NCI-H2052, 24 h) is 15 nM; in the assay with MKN-45/Ubc-luc cells [2] (setting [6]), greater than 10 µM; in assay [4] it was 2 nM. The GI50 in the assay with MKN-45/Ubc-luc cells [3] (Homo sapiens) is greater than 10 µM; in assay [5] (Homo sapiens, NCI-H2052, 72 h), 22 nM.

As to `C[C@H]1c2c(ccc(Cl)c2-c2c(C(N)=O)ccc(OC(F)F)c2F)O[C@]1(CN[C@H]1CC[C@@](C)(O)CC1)c1ccccc1` (relative stereo) [Example 104a, 2-((2S,3S,4S)-5-chloro-2-((((cis)-4-hydroxy-4-methylcyclohexyl)amino)methyl)-3-methyl-2-phenyl-2,3-dihydrobenzofuran-4-yl)-4-(difluoromethoxy)-3-fluorobenzamide], the IC50 is 35 nM in assay [1], greater than 10 µM with MKN-45/Ubc-luc cells [2] (setting [7]) and 3 nM in assay [4]. The results for the GI50 (in the assay on MKN-45/Ubc-luc cells [3]; in assay [5]) were 6.2 µM and 144 nM, respectively.

For the compound `CNC(=O)c1ccc(OCCO)c(F)c1-c1c(Cl)c(F)cc2c1C[C@](c1ccccc1)(C1CCN1)O2` (stereo partly drawn) [Example 149, 2-((2S,4S)-2-(Azetidin-2-yl)-5-chloro-6-fluoro-2-phenyl-2,3-dihydrobenzofuran-4-yl)-3-fluoro-4-(2-hydroxyethoxy)-N-methylbenzamide], the IC50 in assay [1] (Homo sapiens, NCI-H2052, 24 h) was 96 nM; with MKN-45/Ubc-luc cells [2] (setting [6]) it was greater than 10 µM; in assay [4] it was 5 nM. The 50% growth inhibitory concentration (GI50) with MKN-45/Ubc-luc cells [3] (Homo sapiens) was greater than 10 µM; in assay [5] (Homo sapiens, NCI-H2052, 72 h) it was 100 nM.

Turning to `NC(=O)c1ccc(OC(F)F)c(F)c1-c1c(Cl)c(F)cc2c1C[C@](c1ccccc1)(C1CC(O)CN1)O2` (single isomer, unassigned) [Example 158], the IC50 in assay [1] (Homo sapiens, NCI-H2052, 24 h) was 93 nM; with MKN-45/Ubc-luc cells [2] (setting [6]) it was greater than 10 µM; in assay [4] it was 5 nM. Also, the GI50 in the assay on MKN-45/Ubc-luc cells [3] (Homo sapiens) is greater than 10 µM; in assay [5] (Homo sapiens, NCI-H2052, 72 h) it was 181 nM.

On to `CNC(=O)c1ccc(OCCO)c(F)c1-c1c(Cl)c(F)cc2c1[C@H](C)[C@@](CN[C@H]1CC[C@](C)(O)CC1)(c1ccccc1)O2` (atropisomer, axis not shown) [Example 121, 2-((2S,3S,4S)-5-Chloro-6-fluoro-2-((((trans)-4-hydroxy-4-methylcyclohexyl)amino)methyl)-3-methyl-2-phenyl-2,3-dihydrobenzofuran-4-yl)-3-fluoro-4-(2-hydroxyethoxy)-N-methylbenzamide], for which the IC50 in assay [1] (Homo sapiens, NCI-H2052, 24 h) is 20 nM; in the assay with MKN-45/Ubc-luc cells [2] (setting [6]), greater than 10 µM; in assay [4], 2 nM. Also, the GI50 with MKN-45/Ubc-luc cells [3] (Homo sapiens) is greater than 10 µM; in assay [5] (Homo sapiens, NCI-H2052, 72 h) it was 36 nM.

As to `CNC[C@@]1(c2ccccc2)Cc2c(cc(F)c(Cl)c2-c2c(C(N)=O)cnc(OCCOC)c2F)O1` (atropisomer, axis not shown) [Example 47, 4-((2S,4S)-5-Chloro-6-fluoro-2-((methylamino)methyl)-2-phenyl-2,3-dihydrobenzofuran-4-yl)-5-fluoro-6-(2-methoxyethoxy)nicotinamide], the IC50 in assay [1] (Homo sapiens, NCI-H2052, 24 h) was 50 nM; with MKN-45/Ubc-luc cells [2] (setting [6]), greater than 10 µM; in assay [4] it was 4 nM. For the same compound, the GI50 is greater than 10 µM in the assay on MKN-45/Ubc-luc cells [3] (Homo sapiens) and 35 nM in assay [5] (Homo sapiens, NCI-H2052, 72 h).

On to `CS(=O)(=O)[C@H]1CC[C@@H](NC[C@@]2(c3ccccc3)Cc3c(cc(F)c(Cl)c3-c3c(C(N)=O)ccc(OC(F)F)c3F)O2)CC1` [Example 54a, 2-((2S,4S)-5-Chloro-6-fluoro-2-((((cis)-4-(methylsulfonyl)cyclohexyl)amino)methyl)-2-phenyl-2,3-dihydrobenzofuran-4-yl)-4-(difluoromethoxy)-3-fluorobenzamide], for which the IC50 was 147 nM in assay [1] (Homo sapiens, NCI-H2052, 24 h); greater than 10 µM in the assay with MKN-45/Ubc-luc cells [2] (setting [6]); 75 nM in assay [4]. The GI50 in the assay with MKN-45/Ubc-luc cells [3] (Homo sapiens) is greater than 10 µM; in assay [5] (Homo sapiens, NCI-H2052, 72 h), 670 nM.
